Reference: patent publication US9290421B2, “Hypervalent radioactive astatine or iodine compounds, and preparation methods thereof” (Institut National de la Santé de la Recherche Medicalé, priority 2010, dated 2016)

melting point: 189 to 190 °C
SMILES: Cc1ccc2c(c1)C(C(F)(F)F)(C(F)(F)F)OI2Br [Compound 5a, 1-Bromo-1,3-dihydro-5-methyl-3,3-bis(trifluoromethyl)-1,2-benziodoxole]
